US10351827B2, “Method for differentiating induced pluripotent stem cells into renal proximal tubular cell-like cells” (priority 2013, dated 2019)
Where two headings read alike, the source gives them in different places. Each block holds one compound with its values, some of them ahead of it.

Key:
[1] = test system: HPTCs; settings: similar experiments performed with HPTCs; cited from earlier work
[2] = test system: hiPSC-derived HPTC-like cells; assay: nephrotoxicology in vitro model based on interleukin-6/interleukin-8 expression (Example 1)
[3] = test system: PTC in humans; settings: cited from earlier work
[4] = test system: iPS(Foreskin)-4-derived d8 HPTC-like cells; settings: human, 16 h
[5] = test system: hiPSC-derived HPTC-like cells
[6] = target: OCT2 (Homo sapiens, UniProt O15244); settings: co-incubation of 100 μg/ml rifampicin with 2 mM cimetidine, iPS(Foreskin)-4-derived d8 cells
OCT2, sequence (O15244 whole entry): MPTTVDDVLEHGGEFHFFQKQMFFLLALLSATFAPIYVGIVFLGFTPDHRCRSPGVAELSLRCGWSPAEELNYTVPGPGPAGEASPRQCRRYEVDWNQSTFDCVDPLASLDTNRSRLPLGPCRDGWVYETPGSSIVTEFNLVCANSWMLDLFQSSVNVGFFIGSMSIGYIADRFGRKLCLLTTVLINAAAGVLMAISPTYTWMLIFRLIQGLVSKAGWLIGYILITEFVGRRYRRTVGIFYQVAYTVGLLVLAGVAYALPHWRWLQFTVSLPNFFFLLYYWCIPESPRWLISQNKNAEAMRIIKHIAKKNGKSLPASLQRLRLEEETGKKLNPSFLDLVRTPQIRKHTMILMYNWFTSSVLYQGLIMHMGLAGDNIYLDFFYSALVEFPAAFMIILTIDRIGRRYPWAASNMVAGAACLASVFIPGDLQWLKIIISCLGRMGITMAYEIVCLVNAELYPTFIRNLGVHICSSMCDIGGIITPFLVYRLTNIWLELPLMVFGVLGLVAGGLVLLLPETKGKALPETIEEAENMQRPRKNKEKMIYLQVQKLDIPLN

Compound: C[n+]1ccc(-c2cc[n+](C)cc2)cc1 [Paraquat]
- cell numbers after treatment [1]: a decrease in cell numbers was not observed
- IL-6 expression after treatment [2]: increase
- nephrotoxicity / toxicity for PTC in humans [3]: directly toxic for PTC

Compound: CO[C@H]1/C=C/O[C@@]2(C)Oc3c(C)c(O)c4c(O)c(c(/C=N/N5CCN(C)CC5)c(O)c4c3C2=O)NC(=O)/C(C)=C\C=C\[C@H](C)[C@H](O)[C@@H](C)[C@@H](O)[C@@H](C)[C@H](OC(C)=O)[C@@H]1C [Rifampicin]
- IL6 Expression Levels ([4]; 1 μg/ml): 5.8 ± 0.9
- IL8 Expression Levels ([4]; 1 μg/ml): 2.5 ± 0.4
- IL6 Expression Levels ([4]; 10 μg/ml): 4.5 ± 0.3
- IL8 Expression Levels ([4]; 10 μg/ml): 3.4 ± 0.3
- IL6 Expression Levels ([4]; 100 μg/ml): 2.3 ± 0.2
- IL8 Expression Levels ([4]; 100 μg/ml): 9.7 ± 0.3
- increase of IL6 expression ([4]; 100 μg/ml): ~17 fold
- increase of IL8 expression ([4]; 100 μg/ml): ~18 fold
- IL6 Expression Levels ([4]; 1000 μg/ml): 9.3 ± 0.6
- IL8 Expression Levels ([4]; 1000 μg/ml): 18.2 ± 1.2
- IL-6 expression after treatment [5]: increase
- IL-8 expression after treatment [5]: increase

- reduction of rifampicin-induced IL6 expression [6]: 40%
- reduction of rifampicin-induced IL8 expression [6]: 26%
Compound: CN/C(=N/CCSCc1nc[nH]c1C)NC#N [cimetidine]

Compound: Gentamicin
- cell numbers after treatment [1]: a decrease in cell numbers was not observed
- nephrotoxicity / toxicity for PTC in humans [3]: directly toxic for PTC
